Columns and labels:
Experiment in all cases: KINOMEscan
Format in all cases: binding
Details in all cases: read-out: Remaining enzyme activity
BMPR1a = molecular target: T1, BMPR1a (Homo sapiens, UniProt P36894)
T1 construct: purchased Ambit (DiscoverX) KINOMEscan; Cerep
In short: (§1)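 Each kinase, tagged with DNA, is partitioned between test compound and an immobilized active-site ligand; qPCR of the eluate reports the bound fraction. SC81458 dosed once, 10 μM final concentration.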

RET(V804M) = molecular target: T2, RET(V804M) (Homo sapiens, UniProt P07949, V804M)
T2 construct: purchased Ambit (DiscoverX) KINOMEscan; Cerep
In short: as §1

RIPK2 = molecular target: T3, RIPK2 (Homo sapiens, UniProt O43353)
T3 construct: purchased Ambit (DiscoverX) KINOMEscan; Cerep
In short: as §1

ABL1(Q252H) = molecular target: T4, ABL1(Q252H) (Homo sapiens, UniProt P00519, Q252H)
T4 construct: purchased Ambit (DiscoverX) KINOMEscan; Cerep
In short: as §1

[1] = molecular target: T5, RPS6KA4(Kin.Dom.2-C-term) (Homo sapiens, UniProt O75676)
T5 construct: RPS6KA4(Kin.Dom.2-C-term); purchased Ambit (DiscoverX) KINOMEscan; Cerep
In short: as §1

RET(M918T) = molecular target: T6, RET(M918T) (Homo sapiens, UniProt P07949, M918T)
T6 construct: purchased Ambit (DiscoverX) KINOMEscan; Cerep
In short: as §1

AKT2 = molecular target: T7, AKT2 (Homo sapiens, UniProt P31751)
T7 construct: purchased Ambit (DiscoverX) KINOMEscan; Cerep
In short: as §1

CLK1 = molecular target: T8, CLK1 (Homo sapiens, UniProt P49759)
T8 construct: purchased Ambit (DiscoverX) KINOMEscan; Cerep
In short: as §1

SRPK3 = molecular target: T9, SRPK3 (Homo sapiens, UniProt Q9UPE1)
T9 construct: purchased Ambit (DiscoverX) KINOMEscan; Cerep
In short: as §1

EGFR = molecular target: T10, EGFR (Homo sapiens, UniProt P00533)
T10 construct: purchased Ambit (DiscoverX) KINOMEscan; Cerep
In short: as §1

PAK7 = molecular target: T11, PAK7 (Homo sapiens, UniProt Q9P286)
T11 construct: purchased Ambit (DiscoverX) KINOMEscan; Cerep
In short: as §1

PLK1 = molecular target: T12, PLK1 (Homo sapiens, UniProt P53350)
T12 construct: purchased Ambit (DiscoverX) KINOMEscan; Cerep
In short: as §1

PRKD1 = molecular target: T13, PRKD1 (Homo sapiens, UniProt Q15139)
T13 construct: purchased Ambit (DiscoverX) KINOMEscan; Cerep
In short: as §1

BRAF = molecular target: T14, BRAF (Homo sapiens, UniProt P15056)
T14 construct: purchased Ambit (DiscoverX) KINOMEscan; Cerep
In short: as §1

CSNK2a2 = molecular target: T15, CSNK2a2 (Homo sapiens, UniProt P19784)
T15 construct: purchased Ambit (DiscoverX) KINOMEscan; Cerep
In short: as §1

MARK1 = molecular target: T16, MARK1 (Homo sapiens, UniProt Q9P0L2)
T16 construct: purchased Ambit (DiscoverX) KINOMEscan; Cerep
In short: as §1

IKK-beta = molecular target: T17, IKK-beta (Homo sapiens, UniProt O14920)
T17 construct: purchased Ambit (DiscoverX) KINOMEscan; Cerep
In short: as §1

PIK3C2b = molecular target: T18, PIK3C2b (Homo sapiens, UniProt O00750)
T18 construct: purchased Ambit (DiscoverX) KINOMEscan; Cerep
In short: as §1

[2] = molecular target: T19, EGFR(L747-E752del, P753S) (Homo sapiens, UniProt P00533, DEL747-752/P753S)
T19 construct: purchased Ambit (DiscoverX) KINOMEscan; Cerep
In short: as §1

ERBB2 = molecular target: T20, ERBB2 (Homo sapiens, UniProt P04626)
T20 construct: purchased Ambit (DiscoverX) KINOMEscan; Cerep
In short: as §1

TAOK3 = molecular target: T21, TAOK3 (Homo sapiens, UniProt Q9H2K8)
T21 construct: purchased Ambit (DiscoverX) KINOMEscan; Cerep
In short: as §1

DDR2 = molecular target: T22, DDR2 (Homo sapiens, UniProt Q16832)
T22 construct: purchased Ambit (DiscoverX) KINOMEscan; Cerep
In short: as §1

DAPK3 = molecular target: T23, DAPK3 (Homo sapiens, UniProt O43293)
T23 construct: purchased Ambit (DiscoverX) KINOMEscan; Cerep
In short: as §1

LZK = molecular target: T24, LZK (Homo sapiens, UniProt O43283)
T24 construct: purchased Ambit (DiscoverX) KINOMEscan; Cerep
In short: as §1

EPHA1 = molecular target: T25, EPHA1 (Homo sapiens, UniProt P21709)
T25 construct: purchased Ambit (DiscoverX) KINOMEscan; Cerep
In short: as §1

LOK = molecular target: T26, LOK (Homo sapiens, UniProt O94804)
T26 construct: purchased Ambit (DiscoverX) KINOMEscan; Cerep
In short: as §1

PRKG2 = molecular target: T27, PRKG2 (Homo sapiens, UniProt Q13237)
T27 construct: purchased Ambit (DiscoverX) KINOMEscan; Cerep
In short: as §1

QSK = molecular target: T28, QSK (Homo sapiens, UniProt Q9Y2K2)
T28 construct: purchased Ambit (DiscoverX) KINOMEscan; Cerep
In short: as §1

BRSK1 = molecular target: T29, BRSK1 (Homo sapiens, UniProt Q8TDC3)
T29 construct: purchased Ambit (DiscoverX) KINOMEscan; Cerep
In short: as §1

YSK1 = molecular target: T30, YSK1 (Homo sapiens, UniProt O00506)
T30 construct: purchased Ambit (DiscoverX) KINOMEscan; Cerep
In short: as §1

FLT1 = molecular target: T31, FLT1 (Homo sapiens, UniProt P17948)
T31 construct: purchased Ambit (DiscoverX) KINOMEscan; Cerep
In short: as §1

SYK = molecular target: T32, SYK (Homo sapiens, UniProt P43405)
T32 construct: purchased Ambit (DiscoverX) KINOMEscan; Cerep
In short: as §1

YANK3 = molecular target: T33, YANK3 (Homo sapiens, UniProt Q86UX6)
T33 construct: purchased Ambit (DiscoverX) KINOMEscan; Cerep
In short: as §1

T22 sequence (Q16832 22-855): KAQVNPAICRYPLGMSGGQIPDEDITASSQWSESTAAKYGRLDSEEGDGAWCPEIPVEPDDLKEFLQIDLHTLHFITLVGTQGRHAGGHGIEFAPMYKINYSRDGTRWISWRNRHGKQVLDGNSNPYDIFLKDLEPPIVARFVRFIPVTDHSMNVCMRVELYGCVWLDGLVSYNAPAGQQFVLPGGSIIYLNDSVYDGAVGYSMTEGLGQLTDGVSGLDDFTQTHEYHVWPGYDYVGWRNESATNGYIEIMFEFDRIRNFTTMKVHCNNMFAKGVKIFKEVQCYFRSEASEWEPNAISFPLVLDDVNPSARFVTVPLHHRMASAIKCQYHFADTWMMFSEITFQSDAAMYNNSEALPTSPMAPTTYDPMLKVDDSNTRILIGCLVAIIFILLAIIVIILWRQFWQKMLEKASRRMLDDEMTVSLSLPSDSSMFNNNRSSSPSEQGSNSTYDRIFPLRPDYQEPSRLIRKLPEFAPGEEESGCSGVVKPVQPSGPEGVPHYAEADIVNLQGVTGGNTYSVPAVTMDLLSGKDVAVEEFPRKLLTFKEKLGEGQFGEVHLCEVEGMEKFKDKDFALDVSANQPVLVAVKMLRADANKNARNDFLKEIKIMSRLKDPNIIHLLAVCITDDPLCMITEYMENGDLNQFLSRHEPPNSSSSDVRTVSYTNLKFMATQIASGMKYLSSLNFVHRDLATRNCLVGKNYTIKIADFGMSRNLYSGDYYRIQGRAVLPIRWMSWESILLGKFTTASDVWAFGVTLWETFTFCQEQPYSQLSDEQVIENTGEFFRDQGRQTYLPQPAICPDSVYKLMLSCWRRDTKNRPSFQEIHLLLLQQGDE
T19 sequence (P00533 with tags, fused parts or gaps DEL747-752/P753S limits assumed): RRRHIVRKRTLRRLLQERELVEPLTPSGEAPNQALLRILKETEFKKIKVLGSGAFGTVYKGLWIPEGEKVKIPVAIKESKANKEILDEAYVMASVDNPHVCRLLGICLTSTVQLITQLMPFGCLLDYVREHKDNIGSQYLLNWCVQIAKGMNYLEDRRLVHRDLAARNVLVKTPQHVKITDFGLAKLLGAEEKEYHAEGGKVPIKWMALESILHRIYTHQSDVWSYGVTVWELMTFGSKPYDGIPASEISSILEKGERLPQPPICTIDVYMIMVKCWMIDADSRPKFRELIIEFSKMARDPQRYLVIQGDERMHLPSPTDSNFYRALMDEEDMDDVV
T12 sequence (P53350 whole entry): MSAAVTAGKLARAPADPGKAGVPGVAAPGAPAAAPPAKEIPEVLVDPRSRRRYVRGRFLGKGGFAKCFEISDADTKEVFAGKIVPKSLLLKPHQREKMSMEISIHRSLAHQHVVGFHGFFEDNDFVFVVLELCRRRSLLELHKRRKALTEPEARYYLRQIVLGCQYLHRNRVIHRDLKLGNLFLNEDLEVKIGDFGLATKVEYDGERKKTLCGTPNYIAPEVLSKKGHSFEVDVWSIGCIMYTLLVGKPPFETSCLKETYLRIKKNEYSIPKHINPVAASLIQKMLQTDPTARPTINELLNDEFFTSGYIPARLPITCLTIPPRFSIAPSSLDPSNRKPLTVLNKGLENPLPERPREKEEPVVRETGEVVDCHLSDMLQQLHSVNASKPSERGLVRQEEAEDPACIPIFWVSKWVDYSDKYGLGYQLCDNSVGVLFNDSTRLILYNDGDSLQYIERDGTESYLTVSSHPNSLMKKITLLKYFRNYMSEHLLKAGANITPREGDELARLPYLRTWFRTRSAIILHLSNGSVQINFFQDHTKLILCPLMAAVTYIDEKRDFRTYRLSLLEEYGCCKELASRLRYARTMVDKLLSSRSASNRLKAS
T28 sequence (Q9Y2K2 whole entry): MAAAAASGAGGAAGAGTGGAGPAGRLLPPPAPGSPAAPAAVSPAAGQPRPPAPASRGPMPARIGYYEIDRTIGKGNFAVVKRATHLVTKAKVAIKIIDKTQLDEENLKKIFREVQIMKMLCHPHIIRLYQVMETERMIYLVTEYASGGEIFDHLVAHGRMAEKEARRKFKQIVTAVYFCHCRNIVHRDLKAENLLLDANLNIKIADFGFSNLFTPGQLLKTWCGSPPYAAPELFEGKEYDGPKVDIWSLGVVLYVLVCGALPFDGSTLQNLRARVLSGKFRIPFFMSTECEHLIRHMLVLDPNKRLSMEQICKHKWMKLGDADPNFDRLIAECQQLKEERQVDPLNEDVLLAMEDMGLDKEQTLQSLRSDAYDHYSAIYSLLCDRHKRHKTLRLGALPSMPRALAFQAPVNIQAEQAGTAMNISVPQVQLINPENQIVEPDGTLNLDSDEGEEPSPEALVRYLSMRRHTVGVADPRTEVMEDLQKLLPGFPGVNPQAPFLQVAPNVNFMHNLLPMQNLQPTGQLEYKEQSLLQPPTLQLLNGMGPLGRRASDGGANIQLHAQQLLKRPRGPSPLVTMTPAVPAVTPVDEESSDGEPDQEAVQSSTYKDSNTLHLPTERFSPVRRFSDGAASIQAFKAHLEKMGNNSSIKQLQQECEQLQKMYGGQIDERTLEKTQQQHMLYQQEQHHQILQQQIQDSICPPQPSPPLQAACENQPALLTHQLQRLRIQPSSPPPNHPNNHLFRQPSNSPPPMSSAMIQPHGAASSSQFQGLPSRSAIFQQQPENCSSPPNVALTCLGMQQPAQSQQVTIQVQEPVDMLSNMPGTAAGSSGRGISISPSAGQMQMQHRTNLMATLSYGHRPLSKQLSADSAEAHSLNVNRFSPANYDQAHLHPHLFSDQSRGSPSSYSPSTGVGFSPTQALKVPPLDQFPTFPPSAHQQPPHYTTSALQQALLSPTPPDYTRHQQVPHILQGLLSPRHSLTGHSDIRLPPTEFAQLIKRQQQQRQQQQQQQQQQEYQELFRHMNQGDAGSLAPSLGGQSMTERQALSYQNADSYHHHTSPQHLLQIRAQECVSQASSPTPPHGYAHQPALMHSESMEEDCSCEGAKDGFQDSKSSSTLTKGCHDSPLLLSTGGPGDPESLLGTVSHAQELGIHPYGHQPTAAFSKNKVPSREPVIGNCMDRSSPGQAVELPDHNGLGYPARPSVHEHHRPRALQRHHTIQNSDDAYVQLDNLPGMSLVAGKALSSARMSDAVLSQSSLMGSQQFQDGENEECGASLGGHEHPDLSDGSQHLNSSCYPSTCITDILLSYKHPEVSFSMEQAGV
T14 sequence (P15056 whole entry): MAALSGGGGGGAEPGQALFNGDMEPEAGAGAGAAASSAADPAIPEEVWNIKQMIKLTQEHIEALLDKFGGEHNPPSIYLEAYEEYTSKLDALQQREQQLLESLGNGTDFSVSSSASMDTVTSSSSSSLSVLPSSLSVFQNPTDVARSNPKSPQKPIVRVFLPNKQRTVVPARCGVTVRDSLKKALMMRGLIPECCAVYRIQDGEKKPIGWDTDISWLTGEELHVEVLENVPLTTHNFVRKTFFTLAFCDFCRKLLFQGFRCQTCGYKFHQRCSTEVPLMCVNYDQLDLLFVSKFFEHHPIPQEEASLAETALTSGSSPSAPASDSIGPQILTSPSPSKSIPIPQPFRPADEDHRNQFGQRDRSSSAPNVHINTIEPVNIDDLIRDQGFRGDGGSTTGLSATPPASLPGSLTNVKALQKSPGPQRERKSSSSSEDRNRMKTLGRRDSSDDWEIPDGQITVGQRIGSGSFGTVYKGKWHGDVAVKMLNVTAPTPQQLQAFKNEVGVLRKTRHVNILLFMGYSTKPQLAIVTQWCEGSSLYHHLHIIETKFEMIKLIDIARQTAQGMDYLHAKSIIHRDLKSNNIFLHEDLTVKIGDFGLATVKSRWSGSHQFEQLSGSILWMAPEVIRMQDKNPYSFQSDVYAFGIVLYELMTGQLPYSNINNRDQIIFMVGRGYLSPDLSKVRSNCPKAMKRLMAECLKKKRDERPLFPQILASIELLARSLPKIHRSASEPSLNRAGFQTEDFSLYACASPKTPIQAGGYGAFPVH
T7 sequence (P31751 whole entry): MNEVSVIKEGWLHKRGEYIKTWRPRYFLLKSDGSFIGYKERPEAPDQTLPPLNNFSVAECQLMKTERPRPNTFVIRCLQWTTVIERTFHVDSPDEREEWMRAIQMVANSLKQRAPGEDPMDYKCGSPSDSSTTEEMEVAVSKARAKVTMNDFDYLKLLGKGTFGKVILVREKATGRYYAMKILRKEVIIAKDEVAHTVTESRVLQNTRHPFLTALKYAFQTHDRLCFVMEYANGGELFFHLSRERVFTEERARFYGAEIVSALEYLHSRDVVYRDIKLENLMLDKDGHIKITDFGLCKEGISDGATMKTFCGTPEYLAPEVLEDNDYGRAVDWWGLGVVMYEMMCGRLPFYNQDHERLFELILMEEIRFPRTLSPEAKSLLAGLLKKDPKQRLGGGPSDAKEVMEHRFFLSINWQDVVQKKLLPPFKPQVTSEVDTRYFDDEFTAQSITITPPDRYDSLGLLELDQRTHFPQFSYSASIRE
T30 sequence (O00506 whole entry): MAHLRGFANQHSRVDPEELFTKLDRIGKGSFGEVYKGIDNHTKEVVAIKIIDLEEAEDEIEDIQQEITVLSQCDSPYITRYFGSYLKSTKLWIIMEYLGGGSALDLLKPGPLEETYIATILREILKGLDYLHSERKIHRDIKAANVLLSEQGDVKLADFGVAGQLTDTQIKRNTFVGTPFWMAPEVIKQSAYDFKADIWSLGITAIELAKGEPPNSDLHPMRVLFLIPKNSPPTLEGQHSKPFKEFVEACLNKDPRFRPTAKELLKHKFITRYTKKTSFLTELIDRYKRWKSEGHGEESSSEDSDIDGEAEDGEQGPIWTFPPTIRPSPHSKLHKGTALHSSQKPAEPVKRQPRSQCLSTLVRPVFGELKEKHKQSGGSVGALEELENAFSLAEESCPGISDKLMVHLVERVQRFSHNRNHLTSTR
T5 sequence (O75676 411-674 limits assumed): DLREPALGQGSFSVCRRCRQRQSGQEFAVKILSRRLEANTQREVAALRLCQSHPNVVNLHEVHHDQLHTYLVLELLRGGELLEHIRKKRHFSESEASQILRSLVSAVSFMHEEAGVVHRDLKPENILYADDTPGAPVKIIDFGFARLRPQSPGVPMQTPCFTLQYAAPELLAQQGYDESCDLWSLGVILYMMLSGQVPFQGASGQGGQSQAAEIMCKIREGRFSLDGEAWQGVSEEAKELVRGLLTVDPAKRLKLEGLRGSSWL

CCCCN1CCN(C(=N)c2cccc(NC(=O)Nc3ccc(S(=O)(=O)NCc4ccc(S(N)(=O)=O)cc4)cc3)c2)CC1 [SC81458, 4-(3-(3-((4-butylpiperazin-1-yl)(imino)methyl)phenyl)ureido)-N-(4-sulfamoylbenzyl) benzenesulfonamide]
remaining binding at 10 µM (BMPR1a): 100% | remaining binding at 10 µM (RET(V804M)): 100% | remaining binding at 10 µM (RIPK2): 96% | remaining binding at 10 µM (ABL1(Q252H)): 95% | remaining binding at 10 µM [1]: 92% | remaining binding at 10 µM (RET(M918T)): 100% | remaining binding at 10 µM (AKT2): 84% | remaining binding at 10 µM (CLK1): 100% | remaining binding at 10 µM (SRPK3): 83% | remaining binding at 10 µM (EGFR): 100% | remaining binding at 10 µM (PAK7): 100% | remaining binding at 10 µM (PLK1): 96% | remaining binding at 10 µM (PRKD1): 65% | remaining binding at 10 µM (BRAF): 95% | remaining binding at 10 µM (CSNK2a2): 78% | remaining binding at 10 µM (MARK1): 100% | remaining binding at 10 µM (IKK-beta): 100% | remaining binding at 10 µM (PIK3C2b): 98% | remaining binding at 10 µM [2]: 84% | remaining binding at 10 µM (ERBB2): 100% | remaining binding at 10 µM (TAOK3): 100% | remaining binding at 10 µM (DDR2): 100% | remaining binding at 10 µM (DAPK3): 100% | remaining binding at 10 µM (LZK): 100% | remaining binding at 10 µM (EPHA1): 91% | remaining binding at 10 µM (LOK): 100% | remaining binding at 10 µM (PRKG2): 80% | remaining binding at 10 µM (QSK): 100% | remaining binding at 10 µM (BRSK1): 69% | remaining binding at 10 µM (YSK1): 76% | remaining binding at 10 µM (FLT1): 91% | remaining binding at 10 µM (SYK): 100% | remaining binding at 10 µM (YANK3): 97%
